Reference: patent EP0433683A2, “Use of benzothiazepines as potentiators of anti-cancer drugs” (MARION MERRELL DOW INC., priority 1989, dated 1991)
Counter-ions that a name gives are not always drawn.

What was measured:
[1] = Anti-depressant activity (AdA), visual observation; type: in vivo; conditions: scale from 0 to 5
Description: Anti-depressant activity (AdA) was determined by visual observation.

[2] = Anticonvulsant activity (AcA), method of Zobrist et al.; type: in vivo; parameters: key: 0 being no observed activity; 5 being the most active; conditions: scale from 0 to 5
Description: Anticonvulsant activity (AcA) was determined generally by the method of Zobrist et al., European Patent Application EP.... (our ref.: A 634 EP) entitled, "BENZOTHZAZEPINE ANTI-SEIZURE METHOD," and filed on even date herewith; see also US-A-4,879,289.

[3] = Cardiovascular activity (CvA), isolated tissue; conditions: scale from 0 to 5
Description: Cardovascular activity (CvA) was determined by the use of isolated tissue.

VCR-resistant cell line = conditions: nontoxic concentration of diltiazem hydrochloride; cited from earlier work

SMILES | AdA [1] | AcA [2] | CvA [3] | increase in vincristine (VCR) cytotoxicity (VCR-resistant cell line)
COc1ccc([C@@H]2Sc3ccccc3N(CCN(C)C)C(=O)[C@@H]2OC(C)=O)cc1 [Diltiazem, d-cis-5-[2-(dimethylamino)ethyl]-2,3-dihydro-3-hydroxy-2-(4-methoxyphenyl)-1,5-benzothiazepin-4(5H)-one acetate (ester), reference compound] | 2 | 5 |  | 
CCCCC(=O)O[C@H]1C(=O)N(CCN(C)C)c2ccccc2S[C@H]1c1ccc(OC)cc1.O=C(O)/C=C/C(=O)O [d-cis-ML1013] |  | 0 | 1 | 
COc1ccc([C@@H]2Sc3ccccc3N(CCN(C)C)C(=O)[C@@H]2OC(=O)CC(C)C)cc1.O=C(O)/C=C/C(=O)O [d-cis-ML1014] |  | 1 | 1 | 
COc1ccc([C@@H]2Sc3ccccc3N(CCN(C(C)C)C(C)C)C(=O)[C@@H]2OC(C)=O)cc1.Cl [d-cis-ML1016] | 1 | 5 | 2 | 
COc1ccc([C@@H]2Sc3ccccc3N(CCN(C)C)C(=O)[C@@H]2OC(C)=O)cc1 [diltiazem hydrochloride, Diltiazem hydrochloride] |  |  |  | 54 fold
COc1ccc([C@H]2Sc3ccccc3N(CCN(C)C)C(=O)[C@H]2OC(C)=O)cc1 [l-cis-DTZ] |  | 3 |  | 
